Data as given in ChEMBL document CHEMBL1201862, “PubChem BioAssay data set” (2004).
Activity calls are given as the source filed them.

Legend:
[1] = target: Mitogen-activated protein kinase 10 (Homo sapiens, UniProt P53779); test: Dose response biochemical screening assay for inhibitors of c-Jun N-Terminal Kinase 3 (JNK3). [Related pubchem assays: 746 ]
Aminopeptidase N = target: T1, Aminopeptidase N (Plasmodium falciparum FcB1/Columbia, UniProt O96935); test: P. falciparum M1AAP inhibitors, biochemical, fluorogenic H-Leu-NHMec substrate, 1536-well (AID 1445); set-up: species or system Plasmodium falciparum 3D7, 3D7
T1 sequence (O96935 whole entry): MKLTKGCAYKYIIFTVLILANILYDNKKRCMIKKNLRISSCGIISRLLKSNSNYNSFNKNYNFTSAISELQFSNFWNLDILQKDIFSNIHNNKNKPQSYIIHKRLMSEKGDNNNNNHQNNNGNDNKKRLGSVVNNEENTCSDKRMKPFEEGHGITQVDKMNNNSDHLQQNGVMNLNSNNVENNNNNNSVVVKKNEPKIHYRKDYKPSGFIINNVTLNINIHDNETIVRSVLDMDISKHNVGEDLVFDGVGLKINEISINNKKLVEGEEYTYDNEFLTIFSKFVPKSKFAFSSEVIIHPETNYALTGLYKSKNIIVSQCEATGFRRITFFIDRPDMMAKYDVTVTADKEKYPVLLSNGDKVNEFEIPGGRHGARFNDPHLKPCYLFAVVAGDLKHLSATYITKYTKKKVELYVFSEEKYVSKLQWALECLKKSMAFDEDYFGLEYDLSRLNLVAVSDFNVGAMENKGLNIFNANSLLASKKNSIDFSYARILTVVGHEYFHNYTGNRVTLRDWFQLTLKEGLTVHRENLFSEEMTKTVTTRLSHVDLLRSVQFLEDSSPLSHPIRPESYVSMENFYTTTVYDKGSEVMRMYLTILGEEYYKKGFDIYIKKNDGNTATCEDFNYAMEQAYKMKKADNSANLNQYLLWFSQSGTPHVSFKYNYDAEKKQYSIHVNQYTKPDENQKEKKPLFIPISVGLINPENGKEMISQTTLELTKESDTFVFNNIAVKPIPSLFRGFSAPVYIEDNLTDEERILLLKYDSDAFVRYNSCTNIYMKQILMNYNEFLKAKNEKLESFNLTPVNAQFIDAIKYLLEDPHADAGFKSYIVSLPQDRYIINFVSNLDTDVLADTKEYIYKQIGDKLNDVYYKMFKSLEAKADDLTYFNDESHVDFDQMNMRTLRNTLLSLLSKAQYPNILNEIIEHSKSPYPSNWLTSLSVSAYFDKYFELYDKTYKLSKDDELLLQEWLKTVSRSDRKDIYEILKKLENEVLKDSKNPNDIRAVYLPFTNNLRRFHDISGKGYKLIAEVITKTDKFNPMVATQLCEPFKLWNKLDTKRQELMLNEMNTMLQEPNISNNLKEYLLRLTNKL

Prothrombin = Prothrombin (Homo sapiens, UniProt P00734); test: Thrombin 1536 HTS Dose Response Confirmation. [Related pubchem assays: 1046 (Thrombin 1536 HTS; hits were confirmed in this assay)]; assay type: functional
[2] = ZM109 Env clade C HIV-1 fusion inhibitors, dose response, HeLa effector, CEM target cells, luciferase, cherry-pick (AID 652058); assay type: functional, cell-based
[3] = inhibitors of clade B AD8 Env fusion, dose response, cell-based, cherry-pick (AID 652062); assay type: functional;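 also: luciferase signal from cell-cell fusion driven by HIV-1 clade B AD8 Env; potency is for inhibitors of fusion seen as a drop in luminescence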
[4] = target: Serine/threonine-protein phosphatase PP1-alpha catalytic subunit (Homo sapiens, UniProt P62136); test: PP1 phosphatase inhibitors, dose response, biochemical, fluorescence (AID 2394)
[5] = target: T2, Serine/threonine-protein phosphatase (Homo sapiens, UniProt Q9BPW0); test: PP5 phosphatase inhibitors, dose response, biochemical, fluorescence (AID 2395)
T2 sequence (Q9BPW0 whole entry): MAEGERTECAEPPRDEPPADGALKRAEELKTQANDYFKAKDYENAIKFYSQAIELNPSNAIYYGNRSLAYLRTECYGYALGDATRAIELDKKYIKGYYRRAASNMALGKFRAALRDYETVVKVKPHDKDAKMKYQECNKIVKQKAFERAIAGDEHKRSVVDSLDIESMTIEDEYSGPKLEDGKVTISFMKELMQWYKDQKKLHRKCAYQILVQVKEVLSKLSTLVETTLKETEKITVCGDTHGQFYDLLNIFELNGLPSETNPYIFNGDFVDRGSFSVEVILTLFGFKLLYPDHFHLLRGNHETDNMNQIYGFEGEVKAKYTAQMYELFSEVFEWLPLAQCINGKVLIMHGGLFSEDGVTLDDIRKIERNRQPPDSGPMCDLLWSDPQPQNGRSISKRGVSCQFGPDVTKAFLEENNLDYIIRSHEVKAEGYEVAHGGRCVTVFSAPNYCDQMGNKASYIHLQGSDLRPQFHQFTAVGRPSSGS

Sequence of Mitogen-activated protein kinase 10 (P53779 whole entry): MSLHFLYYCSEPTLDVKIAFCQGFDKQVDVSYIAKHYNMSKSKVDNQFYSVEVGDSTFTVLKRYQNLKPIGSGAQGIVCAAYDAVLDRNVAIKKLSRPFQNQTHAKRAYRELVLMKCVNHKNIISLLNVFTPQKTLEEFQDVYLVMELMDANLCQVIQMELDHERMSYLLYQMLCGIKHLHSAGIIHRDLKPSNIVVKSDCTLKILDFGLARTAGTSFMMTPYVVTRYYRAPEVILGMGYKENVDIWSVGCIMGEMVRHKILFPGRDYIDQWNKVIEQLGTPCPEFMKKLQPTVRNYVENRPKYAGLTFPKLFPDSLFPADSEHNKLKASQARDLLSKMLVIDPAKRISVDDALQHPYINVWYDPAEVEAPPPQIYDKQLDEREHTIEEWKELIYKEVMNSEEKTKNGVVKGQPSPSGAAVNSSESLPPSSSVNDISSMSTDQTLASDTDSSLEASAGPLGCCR
Sequence of Serine/threonine-protein phosphatase PP1-alpha catalytic subunit (P62136 whole entry): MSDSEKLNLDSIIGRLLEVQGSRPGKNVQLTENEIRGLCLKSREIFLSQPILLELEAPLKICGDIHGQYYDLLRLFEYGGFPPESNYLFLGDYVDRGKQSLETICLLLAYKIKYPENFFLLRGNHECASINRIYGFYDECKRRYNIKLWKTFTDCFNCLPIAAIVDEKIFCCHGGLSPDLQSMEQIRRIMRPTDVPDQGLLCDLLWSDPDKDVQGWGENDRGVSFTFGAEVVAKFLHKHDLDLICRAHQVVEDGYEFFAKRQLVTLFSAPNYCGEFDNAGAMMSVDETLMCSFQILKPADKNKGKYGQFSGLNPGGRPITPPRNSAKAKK

c1ccc2nc3c(nc2c1)c1ccccc1n3CCN1CCOCC1
IC50 [1]: > 93.1 µM (not active)

COc1ccccc1C1C=C(c2ccc(Cl)cc2)Nc2nc(N3C(=O)CCC3=O)nn21 (stereo not drawn)
IC50 (Aminopeptidase N): 31.3 µM (active)
IC50 (Prothrombin): 5.84 µM (active)

N#Cc1c(NCc2ccccc2)ccnc1NCc1cccnc1
IC50 [1]: 3.96 µM (active)
AC50 [2]: 0.861 µM (active)
AC50 [3]: 5.44 µM (active)

COC(=O)CCC(=O)OC1(C)C(=O)C2=CN(CC(C)C)C(c3ccc(OC)cc3)=CC2=C(Br)C1=O (stereo not drawn)
IC50 [4]: 28.3 µM (not active)
IC50 [5]: 37.5 µM (not active)
